Numbers after ± are expanded uncertainties.
Experiments:
[1] = xn = mol fraction of the nth substance listed; conditions: for surface tension liquid-gas: surface light scattering; for kinematic viscosity / mass density: Liquid; for kinematic viscosity: Surface Light Scattering; for mass density: Vibrating tube method
[2] = for surface tension liquid-gas: surface light scattering; for kinematic viscosity / mass density: Liquid; for kinematic viscosity: Surface laser light scattering (SLLS); for mass density: Vibrating tube method

CCOC(F)(F)C(F)(C(F)(F)F)C(F)(F)F [nonafluoroisobutyl ethyl ether] + CCOC(F)(F)C(F)(F)C(F)(F)C(F)(F)F
[1], x1 = 0.613
Conditions | kinematic viscosity [m2/s] | mass density [kg/m3] | surface tension liquid-gas [mN/m]
273.15 K | 6.63e-07 ± 1.8e-08 | 1478.05 ± 0.89 | 16.03 ± 0.65
278.15 K | – | 1467.14 ± 0.88 | –
283.15 K | 5.56e-07 ± 1.6e-08 | 1456.15 ± 0.87 | 14.9 ± 0.6
288.15 K | – | 1445.07 ± 0.86 | –
293.15 K | 4.82e-07 ± 1.5e-08 | 1433.94 ± 0.85 | 14.01 ± 0.56
298.15 K | – | 1422.65 ± 0.84 | –
303.15 K | 4.29e-07 ± 1.3e-08 | 1411.31 ± 0.83 | 13.21 ± 0.53
308.15 K | – | 1399.85 ± 0.82 | –
313.15 K | 3.82e-07 ± 1.3e-08 | 1388.27 ± 0.81 | 12.33 ± 0.5
318.15 K | – | 1376.56 ± 0.8 | –
323.15 K | 3.43e-07 ± 1.2e-08 | 1364.66 ± 0.79 | 11.42 ± 0.46
328.15 K | – | 1352.68 ± 0.78 | –
333.15 K | 3.13e-07 ± 1.1e-08 | 1340.45 ± 0.77 | 10.56 ± 0.43
338.15 K | – | 1328.09 ± 0.75 | –
343.15 K | 2.83e-07 ± 1.1e-08 | 1315.57 ± 0.74 | 9.67 ± 0.39
348.15 K | – | 1302.85 ± 0.73 | –
353.15 K | 2.56e-07 ± 1e-08 | 1289.93 ± 0.72 | 8.84 ± 0.36
358.15 K | – | 1276.74 ± 0.71 | –
363.15 K | 2.38e-07 ± 1e-08 | 1263.25 ± 0.7 | 7.99 ± 0.32
373.15 K | 2.22e-07 ± 9.8e-09 | – | 7.19 ± 0.29

COC(F)(F)C(F)(F)C(F)(F)F [heptafluoropropyl methyl ether]
[2]
Conditions | kinematic viscosity [m2/s] | mass density [kg/m3] | surface tension liquid-gas [mN/m]
273.15 K | 4.22e-07 ± 1.3e-08 | 1471.16 ± 0.42 | 14.49 ± 0.58
278.15 K | – | 1458.15 ± 0.41 | –
283.15 K | 3.65e-07 ± 1.2e-08 | 1444.94 ± 0.41 | 13.31 ± 0.53
288.15 K | – | 1431.58 ± 0.4 | –
293.15 K | 3.3e-07 ± 1.2e-08 | 1418.04 ± 0.4 | 12.33 ± 0.49
298.15 K | – | 1404.3 ± 0.39 | –
303.15 K | 2.9e-07 ± 1.1e-08 | 1390.35 ± 0.38 | 11.23 ± 0.45
308.15 K | – | 1376.15 ± 0.38 | –
313.15 K | 2.64e-07 ± 1e-08 | 1361.67 ± 0.37 | 10.27 ± 0.41
318.15 K | – | 1346.91 ± 0.36 | –
323.15 K | 2.37e-07 ± 1e-08 | 1331.89 ± 0.36 | 9.23 ± 0.37
328.15 K | – | 1316.54 ± 0.35 | –
333.15 K | 2.2e-07 ± 9.7e-09 | 1300.86 ± 0.34 | 8.28 ± 0.33
338.15 K | – | 1284.82 ± 0.34 | –
343.15 K | 2.01e-07 ± 9.4e-09 | 1268.38 ± 0.33 | 7.36 ± 0.3
348.15 K | – | 1251.45 ± 0.32 | –
353.15 K | 1.8e-07 ± 9.2e-09 | 1234.05 ± 0.31 | 6.38 ± 0.26
358.15 K | – | 1216.87 ± 0.31 | –
363.15 K | 1.66e-07 ± 9e-09 | 1199.54 ± 0.3 | 5.48 ± 0.22
373.15 K | 1.53e-07 ± 8.9e-09 | – | 4.62 ± 0.19

COC(F)(C(F)(F)C(F)(F)F)C(F)(C(F)(F)F)C(F)(F)F (stereo not given)
[2]
Conditions | kinematic viscosity [m2/s] | mass density [kg/m3] | surface tension liquid-gas [mN/m]
273.15 K | 1.01e-06 ± 2.5e-08 | 1714.26 ± 34 | 16.56 ± 0.67
278.15 K | – | 1702.92 ± 34 | –
283.15 K | 8.49e-07 ± 2.2e-08 | 1691.49 ± 34 | 15.81 ± 0.64
288.15 K | – | 1680.02 ± 34 | –
293.15 K | 7.37e-07 ± 1.9e-08 | 1668.48 ± 33 | 14.97 ± 0.6
298.15 K | – | 1656.86 ± 33 | –
303.15 K | 6.31e-07 ± 1.7e-08 | 1645.14 ± 33 | 14.15 ± 0.57
308.15 K | – | 1633.38 ± 33 | –
313.15 K | 5.56e-07 ± 1.6e-08 | 1621.44 ± 32 | 13.43 ± 0.54
318.15 K | – | 1609.41 ± 32 | –
323.15 K | 4.92e-07 ± 1.5e-08 | 1597.29 ± 32 | 12.61 ± 0.51
328.15 K | – | 1585.05 ± 32 | –
333.15 K | 4.36e-07 ± 1.4e-08 | 1572.65 ± 31 | 11.79 ± 0.48
338.15 K | – | 1560.14 ± 31 | –
343.15 K | 3.95e-07 ± 1.3e-08 | 1547.49 ± 31 | 11.03 ± 0.44
348.15 K | – | 1534.67 ± 31 | –
353.15 K | 3.52e-07 ± 1.2e-08 | 1521.68 ± 30 | 10.16 ± 0.41
358.15 K | – | 1508.51 ± 30 | –
363.15 K | 3.15e-07 ± 1.1e-08 | 1495.16 ± 30 | 9.43 ± 0.38
373.15 K | 2.88e-07 ± 1.1e-08 | – | 8.64 ± 0.35

CCOC(F)(C(F)(F)C(F)(F)C(F)(F)F)C(F)(C(F)(F)F)C(F)(F)F (stereo not given) [2-trifluoromethyl-3-ethoxydodecafluorohexane]
[2]
Conditions | kinematic viscosity [m2/s] | mass density [kg/m3] | surface tension liquid-gas [mN/m]
273.15 K | 1.14e-06 ± 2.8e-08 | 1670.6 ± 33 | 16.92 ± 0.68
278.15 K | – | 1660.59 ± 33 | –
283.15 K | 9.38e-07 ± 2.4e-08 | 1650.49 ± 33 | 16.23 ± 0.65
288.15 K | – | 1640.35 ± 33 | –
293.15 K | 8.04e-07 ± 2.1e-08 | 1630.17 ± 33 | 15.52 ± 0.63
298.15 K | – | 1619.92 ± 32 | –
303.15 K | 6.91e-07 ± 1.9e-08 | 1609.61 ± 32 | 14.75 ± 0.59
308.15 K | – | 1599.24 ± 32 | –
313.15 K | 6.11e-07 ± 1.7e-08 | 1588.77 ± 32 | 14.07 ± 0.57
318.15 K | – | 1578.28 ± 32 | –
323.15 K | 5.38e-07 ± 1.5e-08 | 1567.69 ± 31 | 13.3 ± 0.54
328.15 K | – | 1557 ± 31 | –
333.15 K | 4.71e-07 ± 1.4e-08 | 1546.2 ± 31 | 12.65 ± 0.51
338.15 K | – | 1535.3 ± 31 | –
343.15 K | 4.28e-07 ± 1.3e-08 | 1524.31 ± 30 | 11.89 ± 0.48
348.15 K | – | 1513.21 ± 30 | –
353.15 K | 3.88e-07 ± 1.3e-08 | 1501.99 ± 30 | 11.13 ± 0.45
358.15 K | – | 1490.64 ± 30 | –
363.15 K | 3.52e-07 ± 1.2e-08 | 1479.16 ± 30 | 10.4 ± 0.42
373.15 K | 3.17e-07 ± 1.1e-08 | – | 9.66 ± 0.39

COC(F)(F)C(F)(C(F)(F)F)C(F)(F)F [methyl nonafluoroisobutyl ether] + COC(F)(F)C(F)(F)C(F)(F)C(F)(F)F
[1], x1 = 0.623
Conditions | kinematic viscosity [m2/s] | mass density [kg/m3] | surface tension liquid-gas [mN/m]
273.15 K | 6.64e-07 ± 1.8e-08 | 1579.23 ± 2.3 | 15.82 ± 0.63
278.15 K | – | 1566.86 ± 2.2 | –
283.15 K | 5.7e-07 ± 1.6e-08 | 1554.37 ± 2.2 | 14.82 ± 0.59
288.15 K | – | 1541.76 ± 2.2 | –
293.15 K | 4.84e-07 ± 1.4e-08 | 1529.03 ± 2.2 | 13.8 ± 0.55
298.15 K | – | 1516.15 ± 2.2 | –
303.15 K | 4.28e-07 ± 1.3e-08 | 1503.18 ± 2.1 | 12.89 ± 0.52
308.15 K | – | 1490.04 ± 2.1 | –
313.15 K | 3.81e-07 ± 1.2e-08 | 1476.74 ± 2.1 | 11.92 ± 0.48
318.15 K | – | 1463.23 ± 2.1 | –
323.15 K | 3.38e-07 ± 1.2e-08 | 1449.5 ± 2.1 | 11 ± 0.44
328.15 K | – | 1435.61 ± 2 | –
333.15 K | 3.06e-07 ± 1.1e-08 | 1421.48 ± 2 | 10.06 ± 0.4
338.15 K | – | 1407.13 ± 2 | –
343.15 K | 2.77e-07 ± 1.1e-08 | 1392.52 ± 2 | 9.13 ± 0.37
348.15 K | – | 1377.65 ± 2 | –
353.15 K | 2.46e-07 ± 1e-08 | 1362.5 ± 1.9 | 8.16 ± 0.33
358.15 K | – | 1347.04 ± 1.9 | –
363.15 K | 2.28e-07 ± 9.8e-09 | 1331.24 ± 1.9 | 7.32 ± 0.29
373.15 K | 2.09e-07 ± 9.5e-09 | – | 6.46 ± 0.26
